Source: ChEMBL document CHEMBL3632534, “Design and synthesis of aloe-emodin derivatives as potent anti-tyrosinase, antibacterial and anti-inflammatory agents” (Bioorg Med Chem Lett, 2015)
pIC50: −log10 of the molar value. Active and inactive are the calls of the source. No cut-off for these calls is given here.

What was measured:
[1] = target: T1, Tyrosinase (Agaricus bisporus) (UniProt O42713); assay: Reversible inhibition of diphenolase activity of mushroom tyrosinase assessed as L-DOPA oxidation at 10 to 50 uM
T1 sequence (whole entry): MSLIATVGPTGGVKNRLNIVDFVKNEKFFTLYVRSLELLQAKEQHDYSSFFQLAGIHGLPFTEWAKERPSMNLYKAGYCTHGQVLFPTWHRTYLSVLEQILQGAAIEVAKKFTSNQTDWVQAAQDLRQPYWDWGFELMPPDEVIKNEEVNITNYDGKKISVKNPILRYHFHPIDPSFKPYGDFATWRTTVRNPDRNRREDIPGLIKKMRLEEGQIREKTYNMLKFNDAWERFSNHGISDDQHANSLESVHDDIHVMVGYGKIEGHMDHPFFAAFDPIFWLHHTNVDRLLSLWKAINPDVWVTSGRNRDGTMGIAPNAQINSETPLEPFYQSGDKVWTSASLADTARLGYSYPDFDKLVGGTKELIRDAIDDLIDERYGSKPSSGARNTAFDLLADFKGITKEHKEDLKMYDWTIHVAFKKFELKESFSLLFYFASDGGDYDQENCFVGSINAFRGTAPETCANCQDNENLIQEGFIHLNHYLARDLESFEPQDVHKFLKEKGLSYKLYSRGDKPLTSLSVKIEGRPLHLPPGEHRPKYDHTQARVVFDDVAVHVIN

Tyrosinase = target: T2, Tyrosinase (Agaricus bisporus, UniProt O42713)
T2 sequence (O42713 whole entry): T1 sequence (whole entry)
Description: Inhibition of diphenolase activity of mushroom tyrosinase using L-DOPA as substrate assessed as formation of the DOPA chrome preincubated for 10 mins followed by substrate addition measured for 1 min by spectrophotometric analysis

[2] = target: T1, Tyrosinase (Agaricus bisporus); assay: Competitive inhibition of diphenolase activity of mushroom tyrosinase assessed as L-DOPA oxidation at 15 to 45 uM by Lineweaver-Burk plot analysis
[3] = target: T1, Tyrosinase (Agaricus bisporus); assay: Inhibition of diphenolase activity of mushroom tyrosinase using L-DOPA as substrate assessed as formation of the DOPA chrome at 100 uM preincubated for 10 mins followed by substrate addition measured for 1 min by spectrophotometric analysis relative to control
[4] = Drug degradation at 20 degC measured for 15 days; assay type: physicochemical; details: read-out: Drug degradation
Mus musculus = species: Mus musculus; assay: animal or person; details: Kunming, Ear, po, read-out: INH
Description: Antiinflammatory activity in Kunming mouse assessed as inhibition of croton oil-induced ear swelling at 0.105 mmol/kg, ig administered for 3 days followed by croton oil challenge at 1 hrs post last dose measured after 4 hrs relative to control

[5] = target: T1, Tyrosinase (Agaricus bisporus); assay: […] inhibition of diphenolase activity of mushroom tyrosinase assessed as L-DOPA oxidation at 10 to 50 uM

pIC50 (Tyrosinase) | inhibition [3] | Compound | also measured
4.48 | 73.6% | CCCCOc1cccc2c1C(=O)c1c(OCCCC)cc(CO)cc1C2=O | inhibition [1]: Active; inhibition [2]: Active
– | inactive | O=C1c2cccc(O)c2C(=O)c2c(O)cc(/C=N/OCc3ccccc3)cc21 | –
4.03 | 55.4% | C=CCOc1cccc2c1C(=O)c1c(OCC=C)cc(C=O)cc1C2=O | –
4.08 | 57% | C=CCOc1cccc2c1C(=O)c1c(OCC=C)cc(/C=N/O)cc1C2=O | –
– | inactive | C=CCOc1cccc2c1C(=O)c1c(OCC=C)cc(/C=N/OCC)cc1C2=O | –
< 3.70 | 12.9% | CO/N=C/c1cc(O)c2c(c1)C(=O)c1cccc(O)c1C2=O | –
– | – | OC[C@H]1O[C@@H](Oc2ccc(O)cc2)[C@H](O)[C@@H](O)[C@@H]1O [ARBUTIN] | degraded at 360 h [4]: 10%
– | – | CC(=O)Oc1cccc2c1C(=O)c1c(OC(C)=O)cc(C(=O)O)cc1C2=O [DIACEREIN] | inhibition in vivo at 105 µmol/kg (Mus musculus): 39.1%
– | inactive | CCO/N=C/c1cc(OC)c2c(c1)C(=O)c1cccc(OC)c1C2=O | –
– | inactive | O=C1c2cccc(O)c2C(=O)c2c(O)cc(/C=N/O)cc21 | –
< 3.70 | 9.86% | COc1cccc2c1C(=O)c1c(OC)cc(CO)cc1C2=O | inhibition in vivo at 105 µmol/kg (Mus musculus): 35.2%
3.96 | 49.4% | O=Cc1cc(O)c2c(c1)C(=O)c1cccc(O)c1C2=O | inhibition in vivo at 105 µmol/kg (Mus musculus): 50.6%
4.55 | 76.4% | COc1cccc2c1C(=O)c1c(OC)cc(/C=N/NC(N)=S)cc1C2=O | –
< 3.70 | 7.45% | CCOCOc1cccc2c1C(=O)c1c(OCOCC)cc(CO)cc1C2=O | –
– | inactive | C=CCOc1cccc2c1C(=O)c1c(OCC=C)cc(/C=N/OC)cc1C2=O | –
4.61 | 78.6% | NC(=S)N/N=C/c1cc(O)c2c(c1)C(=O)c1cccc(O)c1C2=O | inhibition [5]: Active
< 3.70 | 18.3% | CCO/N=C/c1cc(O)c2c(c1)C(=O)c1cccc(O)c1C2=O | –
4.04 | 58.6% | C=CCOc1cccc2c1C(=O)c1c(OCC=C)cc(CO)cc1C2=O | –
4.24 | 65.3% | CCOCOc1cccc2c1C(=O)c1c(OCOCC)cc(/C=N/NC(N)=S)cc1C2=O | –
– | inactive | CO/N=C/c1cc(OC)c2c(c1)C(=O)c1cccc(OC)c1C2=O | –
– | inactive | COc1cccc2c1C(=O)c1c(OC)cc(C=O)cc1C2=O | inhibition in vivo at 105 µmol/kg (Mus musculus): 42.6%
– | inactive | CCOCOc1cccc2c1C(=O)c1c(OCOCC)cc(C=O)cc1C2=O | –
